Test results: US6683230B1, “Hybrid seed production” (Syngenta Limited, priority 1998, dated 2004)
Like-named read-outs stand apart in the source and are kept apart here.

Experiments:
lac repressor = details: tobacco protoplasts and stable transformants; cited from earlier work
[1] = tested on: safener induced GST-27 promoter; assay: Reversal of sterility in GST-27-barstar maize WU25 by safener; assay type: in vivo
Excerpt: The corn transformation vector Zm/RMS14 (described above) carries a barstar gene fused to the safener induced GST-27 promoter. WU25 was shown by PCR to contain this gene fusion. […] There was no effect of the safener on the size or fertility of tassels on non-transgenic fertile plants. […] The resumption of microspore development appears to be linked to the barstar inhibition of barnase thus overcoming the ablation of tapetal cells. […] In contrast, the anthers from sterile plants were collapsed.
The same promoter fragment was fused to barnase to generate the corn transformation vector ZM/RMS14 (FIG. 30). This fusion also contained an out of frame barstar gene with a functional bacterial promoter to provide protection against barnase during the cloning steps. Transgenic maize plants were obtained and several progressed for further analysis. One plant WU25 in particular was studied in some detail by analysing progeny derived from crosses with pollen from a fully fertile plant. All progeny inheriting the transgene as assessed by PCR and leaf paint to detect the pat gene were completely sterile, whereas progeny lacking the transgene were fully fertile. […] In all other respects sterile plants were indistinguishable from their fertile non-transgenic siblings.

AlcA promoter [2] = details: 0.1% (v/v) ethanol in medium, 3 weeks
Description: (§1) Flower material was ground in 2-300 μl of extraction buffer (100 mM sodium phosphate buffer pH 7, 10 mM EDTA, 0.1% Triton X-100, 1% Sarcosyl, 10 mM b-mercaptoethanol). Samples were spun in a microcentrifuge for 15 min and 5 μl of the supernatant was used for Bradford protein assays with BSA as standard. 20 μl was diluted 1 in 5 with extraction buffer and 400 μl of assay buffer (same for extraction buffer except contains 1 mM 4-MUG and 20% methanol). 100 μl was taken (T0 sample) and added to 900 μl of stop buffer (0.2M sodium carbonate) and the rest was incubated at 37° C. for two hours before taking a further 100 μl (T2 samples) to be added to 900 μl stop buffer.
(§2) Florescence of samples was measured in a spectrophotometer and GUS was represented as nM 4M U per mg protein per hour.

AlcA promoter [3] = tested on: AlcA promoter
Description: as §1, §2
(§3) For the GUS staining, the protocol of Blume and Grierson (1997) was used.

AlcA promoter [4] = tested on: AlcA promoter; remark: listed apart in the source
Excerpt: 1) Oilseed rape (OSR) AlcA-GUS plants were root drenched with 250m1 of either water, 1% or 2% ethanol both on day 0 and day 1. Flower samples from these plants were then taken two days after the first induction.
The first two bars in each section represent uninduced anther and uninduced stigma/style GUS levels respectively. Each bar represents three replicates with each replicate containing anthers from three different flowers or stigma/styles from eight different flowers or ovaries from six different flowers.
2) Oilseed rape Aic-GUS flowers were subjected to GUS staining following induction with ethanol.
as §1, §2, §3

AlcA promoter [5] = details: ethanol vapour, two days after induction
Excerpt: Alc-GUS tomoato flowers were induced using ethanol vapour as described above for tobacco flowers. Two days after induction, anthers and pollen were stained to detect GUS expression.
as §3

AlcA promoter [6] = details: ethanol vapour, 2-3 days
Description: Scutellum tissue is bombarded with pUIRN.AGS and the tissue exposed to ethanol vapour. […] Transgenic Alc-GUS plants obtained are grown to maturity and seed harvested, inducible GUS expression is determined on the progeny plants in the same way as described above for rice.
as §3

AlcA promoter [7] = tested on: AlcA promoter; remark: listed apart in the source
AlcA promoter [8] = details: after induction with ethanol

CC(C)S[C@@H]1O[C@H](CO)[C@H](O)[C@H](O)[C@H]1O [IPTG]
repression of GUS expression by lac repressor (lac repressor): repression can be relieved

CC1CN(C(=O)C(Cl)Cl)C(C)(C)O1 (centres unmarked) [R-29148]
microsporogenesis ([1]; extended treatment with safener): anthers filled with immature post-mitotic pollen | microspore development and tassel size ([1]; foliar application, field grown plants): A similar effect was seen | size or fertility of tassels ([1]; non-transgenic fertile plants): no effect | microspore development in anthers ([1]; root drench, glass house): microspore development was observed | reversal of sterility ([1]; root drench, glass house grown plants): Reversal of sterility was demonstrated | tassel size ([1]; treated vs untreated transgenic plants): increased tassel size relative to untreated plants

CCO [ethanol]
GUS levels in callus (AlcA promoter [2]): levels can be increased with the addition of ethanol | GUS in anthers (AlcA promoter [3]; cut flower stems in 1%, 2% or 5% ethanol, two days): induced by ethanol in the anthers at levels above those seen in the water treated flowers | GUS staining of pistils (AlcA promoter [3]; root drench 250 ml 5% ethanol, two days): induction of GUS in the pistils | GUS in anthers (AlcA promoter [3]; vapour from 50 ml of 5% ethanol in sealed bag, 3 days): higher levels of GUS | GUS levels, all tissues examined (AlcA promoter [4]; 2% ethanol root drench): increase in GUS from both uninduced levels and from the water-treated control plant | GUS staining of pistils (AlcA promoter [4]; 5% ethanol treated plant vs water-treated): induction of GUS in the female tissues | GUS staining of whole inflorescence (AlcA promoter [4]; cut flower stem in 5% ethanol, two days): Blue staining is apparent in the filaments, sepals, petals and the stigma/style regions of the flower | GUS staining of pistil sections (AlcA promoter [4]; root drench 2% ethanol, two days): induction of GUS throughout the pistil region | GUS levels in floral tissues (AlcA promoter [4]; root drench 250 ml 1% or 2% ethanol day 0 and day 1, sampled two days after first induction): increase in GUS levels in floral tissues | GUS staining of flower (AlcA promoter [4]; two days after root drench with 250 ml of 5% ethanol): reporter gene induction in the stigma/style region as well as the filaments | GUS staining of anthers and pollen (AlcA promoter [5]): blue staining was observed in both tissues | GUS staining of bombarded scutellum tissue (AlcA promoter [6]): numerous blue spots are seen | concentration at which induction of GUS expression was observed (AlcA promoter [7]; AlcA promoter): 7 ng/100 ml air | toxicity to operators and environment (AlcA promoter [7]; in vivo): non-toxic to operators and to the environment | concentration at which the inducer is effective (AlcA promoter [7]; root drench, aqueous spray or gas): 1% | reporter gene (CAT) levels in floral tissues (AlcA promoter [8]): increase in reporter gene levels in floral tissues
